Each structure is given as a SMILES string.

The EC50 is the midpoint of the concentration-response curve.

In the test the test system is ATF4 luciferase reporter. In words: ATF4-Luc assay in HEK293T cells carrying the ATF4 luciferase reporter (in vitro model of VWMD). Type of test: cell-based, human. Particulars: Homo sapiens, HEK-293T, 1 μg/mL tunicamycin, 7 hours, luminescence (One Glo). In short, it runs like this: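 Compound at 200 nM and tunicamycin at 1 μg/mL were given together for 7 h to HEK293T cells stably transduced with an ATF4 5′-UTR-driven firefly luciferase reporter. Read-out by luminescence, reported as EC50.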
As for `COc1ccc(CCNC(=O)C23CC(NC(=O)COc4ccc(Cl)c(F)c4)(C2)C3)cc1Cl` [Compound 248, 3-[2-(4-chloro-3-fluorophenoxy)acetamido]-N-[2-(3-chloro-4-methoxyphenyl)ethyl]bicyclo[1.1.1]pentane-1-carboxamide], the EC50 is more than 2000 nM. For `O=C(COc1ccc(Cl)c(F)c1)NC12CC(C(=O)NCCc3c[nH]cn3)(C1)C2` [Compound 188, 3-[2-(4-chloro-3-fluorophenoxy)acetamido]-N-[2-(1H-imidazol-4-yl)ethyl]bicyclo[1.1.1]pentane-1-carboxamide] the value was more than 2000 nM.

On to `O=C(COc1ccc(Cl)c(F)c1)NC12CC(C(=O)NCCc3ccc(C(F)(F)F)cn3)(C1)C2` [Compound 213, 3-[2-(4-chloro-3-fluorophenoxy)acetamido]-N-{2-[5-(trifluoromethyl)pyridin-2-yl]ethyl}bicyclo[1.1.1]pentane-1-carboxamide], for which the EC50 was more than 2000 nM. For `O=C(COc1ccc(Cl)c(F)c1)NC12CCC(C(=O)NCCc3ccc(C(F)(F)F)cc3)(CC1)C(O)C2` (centres unmarked) [Compound 138, 4-[2-(4-chloro-3-fluorophenoxy)acetamido]-2-hydroxy-N-{2-[4-(trifluoromethyl)phenyl]ethyl}bicyclo[2.2.2]octane-1-carboxamide] the value was less than 250 nM; for `Cc1noc(C)c1CCCNC(=O)C12CC(NC(=O)COc3ccc(Cl)c(F)c3)(C1)C2` [Compound 220, 3-[2-(4-chloro-3-fluorophenoxy)acetamido]-N-[3-(3,5-dimethyl-1,2-oxazol-4-yl)propyl]bicyclo[1.1.1]pentane-1-carboxamide], more than 2000 nM; for `Cc1ccc(C)c(CNC(=O)C23CC(NC(=O)COc4ccc(Cl)c(F)c4)(C2)C3)c1` [Compound 190, 3-[2-(4-chloro-3-fluorophenoxy)acetamido]-N-[(2,5-dimethylphenyl)methyl]bicyclo[1.1.1]pentane-1-carboxamide], more than 2000 nM. Take `O=C(COc1ccc(Cl)c(F)c1)NC12CCC(C(=O)NCc3ccc(C(F)(F)F)cn3)(CC1)C(O)C2` (centres unmarked) [Compound 106]: the EC50 is less than 250 nM. As to `CN(Cc1ccccc1)C(=O)C12CC(NC(=O)COc3ccc(Cl)c(F)c3)(C1)C2` [Compound 175, N-benzyl-3-[2-(4-chloro-3-fluorophenoxy)acetamido]-N-methylbicyclo[1.1.1]pentane-1-carboxamide], the EC50 is more than 2000 nM. With `NS(=O)(=O)c1ccc(CCNC(=O)C23CC(NC(=O)COc4ccc(Cl)c(F)c4)(C2)C3)cc1` [Compound 199, 3-[2-(4-chloro-3-fluorophenoxy)acetamido]-N-[2-(4-sulfamoylphenyl)ethyl]bicyclo[1.1.1]pentane-1-carboxamide] the figure was more than 2000 nM; with `O=C(COc1ccc(Cl)cc1)NC12CC(C(=O)NCCOc3ccc(Cl)cc3)(C1)C2` [Compound 100, 3-[2-(4-chlorophenoxy)acetamido]-N-[2-(4-chlorophenoxy)ethyl]bicyclo[1.1.1]-pentane-1-carboxamide], less than 250 nM. With `CC(C)(C)c1ccc(CNC(=O)C23CC(NC(=O)COc4ccc(Cl)c(F)c4)(C2)C3)cc1` [Compound 167, N-[(4-tert-butylphenyl)methyl]-3-[2-(4-chloro-3-fluorophenoxy)acetamido]bicyclo[1.1.1]pentane-1-carboxamide] the figure was more than 2000 nM; with `Cc1cnc(CNC(=O)C23CC(NC(=O)COc4ccc(Cl)c(F)c4)(C2)C3)s1` [Compound 178, 3-[2-(4-chloro-3-fluorophenoxy)acetamido]-N-[(5-methyl-1,3-thiazol-2-yl)methyl]bicyclo[1.1.1]pentane-1-carboxamide], more than 2000 nM; with `Cn1ccc(CNC(=O)C23CCC(NC(=O)COc4ccc(Cl)c(F)c4)(CC2)CC3O)n1` (centres unmarked) [Compound 116, 4-[2-(4-chloro-3-fluorophenoxy)acetamido]-2-hydroxy-N-[(1-methyl-1H-pyrazol-3-yl)methyl]bicyclo[2.2.2]octane-1-carboxamide], more than 2000 nM.

In the case of `O=C(COc1ccc(Cl)c(F)c1)NC12CC(C(=O)NCc3ccc(Cl)cc3)(C1)C2` [Compound 117, 3-[2-(4-chloro-3-fluorophenoxy)acetamido]-N-[(4-chlorophenyl)methyl]bicyclo[1.1.1]pentane-1-carboxamide], the EC50 was less than 250 nM. With `Cc1ccccc1CNC(=O)C12CC(NC(=O)COc3ccc(Cl)c(F)c3)(C1)C2` [Compound 197, 3-[2-(4-chloro-3-fluorophenoxy)acetamido]-N-[(2-methylphenyl)methyl]bicyclo[1.1.1]pentane-1-carboxamide] the figure was 500 to 1000 nM; with `COc1ccc(OC)c(CNC(=O)C23CC(NC(=O)COc4ccc(Cl)c(F)c4)(C2)C3)c1` [Compound 236, 3-[2-(4-chloro-3-fluorophenoxy)acetamido]-N-[(2,5-dimethoxyphenyl]methyl]bicyclo[1.1.1]pentane-1-carboxamide], more than 2000 nM; with `Cc1cccc([C@H](C)NC(=O)C23CC(NC(=O)COc4ccc(Cl)c(F)c4)(C2)C3)c1` [Compound 187, 3-[2-(4-chloro-3-fluorophenoxy)acetamido]-N-[(1S)-1-(3-methylphenyl)ethyl]bicyclo[1.1.1]pentane-1-carboxamide], more than 2000 nM. `COc1cc(F)cc(CNC(=O)C23CC(NC(=O)COc4ccc(Cl)c(F)c4)(C2)C3)c1` [Compound 209, 3-[2-(4-chloro-3-fluorophenoxy)acetamido]-N-[(3-fluoro-5-methoxyphenyl)methyl]bicyclo[1.1.1]pentane-1-carboxamide]: the EC50 is more than 2000 nM. Turning to `CC(C)(C)c1ccc(CNC(=O)C23CCC(NC(=O)COc4ccc(Cl)c(F)c4)(CC2)CC3O)cc1` (centres unmarked) [Compound 137, N-[(4-tert-butylphenyl)methyl]-4-[2-(4-chloro-3-fluorophenoxy)acetamido]-2-hydroxybicyclo[2.2.2]octane-1-carboxamide], the EC50 is 500 to 1000 nM. For `O=C(COc1ccc(Cl)c(F)c1)NC12CC(C(=O)NCCc3cccnc3)(C1)C2` [Compound 242, 3-[2-(4-chloro-3-fluorophenoxy)acetamido]-N-[2-(pyridin-3-yl)ethyl]bicyclo[1.1.1]pentane-1-carboxamide] the value was more than 2000 nM; for `Cc1cccc([C@@H](C)NC(=O)C23CC(NC(=O)COc4ccc(Cl)c(F)c4)(C2)C3)c1` [Compound 189, 3-[2-(4-chloro-3-fluorophenoxy)acetamido]-N-[(1R)-1-(3-methylphenyl)ethyl]bicyclo[1.1.1]pentane-1-carboxamide], more than 2000 nM; for `COc1ccc(CNC(=O)C23CC(NC(=O)COc4ccc(Cl)c(F)c4)(C2)C3)cn1` [Compound 157, 3-[2-(4-chloro-3-fluorophenoxy)acetamido]-N-[(6-methoxypyridin-3-yl)methyl]bicyclo[1.1.1]pentane-1-carboxamide], more than 2000 nM. On to `O=C(COc1ccc(Cl)c(F)c1)NC12CC(C(=O)NCc3ccc(C(F)(F)F)o3)(C1)C2` [Compound 215, 3-[2-(4-chloro-3-fluorophenoxy)acetamido]-N-{[5-(trifluoromethyl)furan-2-yl]methyl}bicyclo[1.1.1]pentane-1-carboxamide], for which the EC50 is more than 2000 nM.

Values taken from patent US10836725B2, “Modulators of the integrated stress pathway” (Calico Life Sciences LLC, priority 2016, dated 2020).
